Results: US9415103B2, “Combination therapy to prevent DCIS formation and progression to breast cancer” (Yeda Research and Development Co. Ltd., priority 2011, dated 2016)

Columns and labels:
MCF10A-HER2 spheroids = experiment: Morphogenesis assay in Matrigel: luminal filling and cleaved Caspase-3 staining by confocal microscopy; format: cell-based, human; details: spheroids grown 4 days, then 10058-F4 1 μM, FIG. 4G; for luminal filling: LY-294002 2 μM or U0126 1 μM for up to 4 additional days, day 8; for Caspase-3 activation: LY-294002 2 μM or U0126 1 μM, imaged on day 6
[1] = system: Notch pathway genes in MCF10A-HER2 spheroids; details: U0126 1 μM, up to five days, lumen-filled spheroids; FIG. 2C

SMILES | luminal filling (MCF10A-HER2 spheroids) | Caspase-3 activation (MCF10A-HER2 spheroids) | transcriptional induction of the Notch pathway (qRT-PCR) [1]
CCc1ccc(/C=C2/SC(=S)NC2=O)cc1 [10058-F4] | significant inhibition | markedly enhanced | –
N#CC(=C(/N)Sc1ccccc1N)/C(C#N)=C(\N)Sc1ccccc1N [U0126] | significant inhibition | markedly enhanced | contributes to the transcriptional induction of the Notch pathway
